The text below walks through data of the Kinase Knowledgebase extract (Sharma et al. 2016).

SMILES strings stand for the structures.

This experiment deals with EGFR (human) (UniProt P00533). The conditions noted are these: A431; for inhibition: concentration not given here.
EGFR (human), sequence (P00533 whole entry, looked up): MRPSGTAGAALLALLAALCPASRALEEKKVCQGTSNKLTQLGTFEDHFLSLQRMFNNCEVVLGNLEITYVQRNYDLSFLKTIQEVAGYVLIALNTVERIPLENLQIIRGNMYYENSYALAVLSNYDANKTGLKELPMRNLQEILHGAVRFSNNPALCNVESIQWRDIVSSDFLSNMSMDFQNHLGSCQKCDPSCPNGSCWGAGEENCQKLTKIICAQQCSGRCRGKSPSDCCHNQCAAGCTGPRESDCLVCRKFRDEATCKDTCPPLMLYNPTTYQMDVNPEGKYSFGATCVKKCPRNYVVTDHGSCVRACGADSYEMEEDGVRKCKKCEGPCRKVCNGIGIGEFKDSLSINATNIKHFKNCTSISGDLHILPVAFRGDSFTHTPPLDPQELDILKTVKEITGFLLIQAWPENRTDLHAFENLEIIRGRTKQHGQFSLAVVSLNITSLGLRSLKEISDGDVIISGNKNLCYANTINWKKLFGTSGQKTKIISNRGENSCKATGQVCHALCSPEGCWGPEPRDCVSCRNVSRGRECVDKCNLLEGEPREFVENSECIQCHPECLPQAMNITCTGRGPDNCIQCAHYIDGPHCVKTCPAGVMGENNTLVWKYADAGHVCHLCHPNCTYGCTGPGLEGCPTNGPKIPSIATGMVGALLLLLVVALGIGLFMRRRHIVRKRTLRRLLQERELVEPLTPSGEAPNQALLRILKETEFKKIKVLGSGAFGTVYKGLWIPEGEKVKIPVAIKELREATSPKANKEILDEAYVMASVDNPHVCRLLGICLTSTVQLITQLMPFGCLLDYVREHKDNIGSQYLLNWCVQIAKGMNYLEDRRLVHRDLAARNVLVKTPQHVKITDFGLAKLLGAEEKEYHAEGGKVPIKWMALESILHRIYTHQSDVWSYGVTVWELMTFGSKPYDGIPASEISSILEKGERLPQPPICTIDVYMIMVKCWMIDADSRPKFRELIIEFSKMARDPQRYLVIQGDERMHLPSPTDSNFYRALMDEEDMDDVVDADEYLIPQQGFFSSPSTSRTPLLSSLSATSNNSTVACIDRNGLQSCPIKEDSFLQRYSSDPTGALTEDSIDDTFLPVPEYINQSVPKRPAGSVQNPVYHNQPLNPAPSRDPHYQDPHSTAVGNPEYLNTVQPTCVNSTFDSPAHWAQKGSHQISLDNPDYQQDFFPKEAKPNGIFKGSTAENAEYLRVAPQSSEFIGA

The term IC50 denotes the concentration that gives 50% inhibition. Low values mean greater potency, high ones weaker potency. Turning to `N#C/C(=C\c1cc(-c2ccccc2)c(O)c(-c2ccccc2)c1)C(N)=O`, the half-maximal inhibitory concentration (IC50) came to 0.37 µM. That is a sub-micromolar value. In general, inhibition refers to the change of the read-out against control, counted positive when it falls. A higher inhibition goes with a strong effect. `CCOc1cc(/C=C(\C#N)C(N)=O)cc(CSc2ccc(Br)cc2)c1O` showed an inhibition of 0%. As for `COc1cc(/C=C(\C#N)C(N)=O)cc(CSc2ccccc2)c1O`, the IC50 was found to be 0.53 µM. Still for that read-out and setting: the figure for `CC(C)c1cc(/C=C(\C#N)C(N)=O)cc(C(C)C)c1O` is 1.1 µM. `CCOc1cc(/C=C(\C#N)C(N)=O)cc(CSc2cccc(Cl)c2)c1O` returned an inhibition of 0%. `CC(C)c1cc(CC(C#N)C(N)=O)cc(C(C)C)c1O` (stereo unspecified) had a half-maximal inhibitory concentration (IC50) of 9.8 µM.

With `CCOc1cc(/C=C(\C#N)C(N)=O)cc(CSc2ccccc2)c1OC(=O)c1ccccc1`, the inhibition is 20%.

As for `CCOc1cc(/C=C(\C#N)C(N)=O)cc(CSc2ccc([N+](=O)[O-])cc2)c1O`, the inhibition was determined as 0%. Regarding `CCOc1cc(/C=C(\C#N)C(N)=O)cc(CSc2ccc(O)cc2)c1O`, the IC50 was found to be 2.8 µM and the inhibition amounted to 30%. For `CCOc1cc(/C=C(\C#N)C(N)=O)cc(CSc2ccc(C)cc2)c1O`, the IC50 amounted to 2.2 µM and the inhibition was determined as 47%. In the same order, the values of `CCOc1cc(/C=C(\C#N)C(N)=O)cc(CSc2c(F)c(F)c(F)c(F)c2F)c1O` are 3 µM and 41%. `CCOc1cc(/C=C(\C#N)C(N)=O)cc(CSc2ccccc2)c1O` yielded an IC50 of 0.37 µM. Same read-out and setting: to `N#C/C(=C\c1cc(Cc2ccccc2)c(O)c(Cc2ccccc2)c1)C(N)=O` belongs 0.6 µM. In turn, `CCOc1cc(/C=C(\C#N)C(N)=O)cc(CSc2ccc(Cl)c(Cl)c2)c1O` gave an inhibition of 0%. Turning to `CC(C)(C)c1cc(/C=C(\C#N)C(N)=O)cc(C(C)(C)C)c1O`, the 50% inhibitory concentration (IC50) was 46 µM. Regarding `CCOc1cc(/C=C(\C#N)C(N)=O)cc(CSc2ccc(C(C)(C)C)cc2)c1O`, the inhibition was found to be 0%. `CCOc1cc(/C=C(\C#N)C(N)=O)cc(CSc2cccc(OC)c2)c1O`: the IC50 was 4 µM and the inhibition was 17%.

In turn, `CCOc1cc(/C=C(\C#N)C(N)=O)cc(COc2ccccc2)c1O` returned an inhibition of 18%.

In turn, `CCOc1cc(/C=C(\C#N)C(N)=O)cc(CSc2ccccc2)c1OC(C)=O` gave an inhibition of 24%. Still for that read-out and setting: the figure for `CCOc1cc(/C=C(\C#N)C(N)=O)cc(CSc2ccccc2)c1OC` is 18%. On the same count and under the same terms, the figure for `CCOc1cc(/C=C(\C#N)C(N)=O)cc(CSc2ccccc2OC)c1O` is 0%.

`N#C/C(=C\c1cc(CSc2ccccc2)c(O)c(OCc2ccccc2)c1)C(N)=O` yielded an IC50 of 0.75 µM.
